# Data taken from ChEMBL document CHEMBL5113479, “Pyrido[2,3-d]pyrimidine-2,4(1H,3H)-dione derivatives as RAF-MEK-ERK pathway signaling pathway blockers: Synthesis, cytotoxic activity, mechanistic investigation and structure-activity relationships” (Eur J Med Chem, 2022).
# Experiments:
# MCF7 = test: Antiproliferative activity against human MCF7 cells assessed as inhibition of cell growth measured after 72 hrs by CCK8 assay; format: functional, cell-based; conditions: MCF7, 72 h
# A-375 = test: Antiproliferative activity against human A-375 cells assessed as inhibition of cell growth measured after 72 hrs by CCK8 assay; format: functional, cell-based; conditions: A-375, 72 h
# [1] = Cytotoxicity against human C-28/I2 cells measured after 72 hrs by CCK8 assay; format: toxicity, cell-based
# SK-MEL-2 = test: Antiproliferative activity against human SK-MEL-2 cells assessed as inhibition of cell growth measured after 72 hrs by CCK8 assay; format: functional, cell-based; conditions: SK-MEL-2, 72 h
# SK-HEP1 = test: Antiproliferative activity against human SK-HEP1 cells assessed as inhibition of cell growth measured after 72 hrs by CCK8 assay; format: functional, cell-based; conditions: SK-HEP1, 72 h
SMILES,IC50 (MCF7) [µM],IC50 (A-375) [µM],CC50 at 72 h [1] [µM],IC50 (SK-MEL-2) [µM],IC50 (SK-HEP1) [µM]
Cc1ccccc1NC(=O)CNc1cc(N2CCCC2)nc2c1c(=O)n(C)c(=O)n2C,15.8,7.6,> 100,6.59,10.7
CCn1c(=O)n(C)c(=O)c2c(Nc3ccccn3)cc(=O)n(C)c21,35,39.5,> 100,,
Cn1c(=O)c2c(NCC(=O)Nc3cccc(C(F)(F)F)c3)cc(N3CCOCC3)nc2n(C)c1=O,12,7.36,> 100,4.03,11
Cn1c(=O)c2c(NCC(=O)Nc3ccc(F)cc3)cc(N3CCCC3)nc2n(C)c1=O,39.6,> 50,> 100,,
CN(C)c1cc(NCC(=O)Nc2cccc(Cl)c2)c2c(=O)n(C)c(=O)n(C)c2n1,,> 50,> 100,41.2,
Cn1c(=O)c2c(Nc3ccc(OC(F)(F)F)cc3)cc(=O)n(C)c2n(C)c1=O,49.8,40.7,> 100,,
Cn1c(=O)c2c(NCCCN3CCOCC3)c(Cc3ccccc3)c(=O)n(C)c2n(C)c1=O,> 50,> 50,> 100,,
Cc1ccccc1NC(=O)CNc1cc(N(C)C)nc2c1c(=O)n(C)c(=O)n2C,49.9,> 50,> 100,,
CN1CCN(c2cc(NCC(=O)Nc3ccc(F)cc3)c3c(=O)n(C)c(=O)n(C)c3n2)CC1,32.9,44.7,> 50,19.9,34.2
CN1CCN(c2cc(NCC(=O)Nc3cccc(C(F)(F)F)c3)c3c(=O)n(C)c(=O)n(C)c3n2)CC1,,45,> 100,> 50,
Cn1c(=O)c2c(NCC(=O)Nc3ccc(OC(F)(F)F)cc3)cc(N3CCCC3)nc2n(C)c1=O,36.2,> 50,> 100,,
Cn1c(=O)c2c(NCC(=O)Nc3ccccc3)cc(N3CCCC3)nc2n(C)c1=O,42.3,> 50,> 100,,
CN(C)c1cc(NCC(=O)Nc2ccc(F)cc2)c2c(=O)n(C)c(=O)n(C)c2n1,47.5,45.7,> 100,,
CN(C)c1cc(NCC(=O)Nc2cccc(C(F)(F)F)c2)c2c(=O)n(C)c(=O)n(C)c2n1,,31.9,> 100,> 50,
CN1CCN(c2cc(NCC(=O)Nc3ccc(Cl)cc3)c3c(=O)n(C)c(=O)n(C)c3n2)CC1,> 50,> 50,> 25,22.4,> 50
Cn1c(=O)c2c(NCC(=O)Nc3cccc(Cl)c3)cc(N3CCCC3)nc2n(C)c1=O,,48.6,> 100,> 50,
Cc1cccc(NC(=O)CNc2cc(N3CCN(C)CC3)nc3c2c(=O)n(C)c(=O)n3C)c1,,40,> 25,42.3,17.3
Cn1c(=O)c2c(NCC(=O)Nc3ccc(Cl)cc3)cc(N3CCOCC3)nc2n(C)c1=O,,43.2,> 100,46.5,

SMILES,IC50 (MCF7) [µM],IC50 (A-375) [µM],CC50 at 72 h [1] [µM],IC50 (SK-MEL-2) [µM],IC50 (SK-HEP1) [µM]
CN1CCN(c2cc(NCC(=O)Nc3ccc(C(F)(F)F)cc3)c3c(=O)n(C)c(=O)n(C)c3n2)CC1,> 50,> 50,> 50,46.4,
Cn1c(=O)c2c(NCC(=O)Nc3ccc(Cl)cc3)cc(N3CCCC3)nc2n(C)c1=O,41.2,48.2,> 100,,
Cn1c(=O)c2c(NC3CC3)c(Cc3ccccc3)c(=O)n(C)c2n(C)c1=O,35.9,45.9,> 100,,
CN(C)CCNc1c(Cc2ccccc2)c(=O)n(C)c2c1c(=O)n(C)c(=O)n2C,> 50,> 50,> 100,,
Cn1c(=O)c2c(NCC(=O)Nc3ccc(F)cc3)cc(N3CCOCC3)nc2n(C)c1=O,45.4,> 50,> 100,,
CN1CCN(c2cc(NCC(=O)Nc3ccc(OC(F)(F)F)cc3)c3c(=O)n(C)c(=O)n(C)c3n2)CC1,39.3,30.5,> 100,36.6,34
COC(=O)c1ccccc1Nc1cc(=O)n(C)c2c1c(=O)n(C)c(=O)n2C,33.4,> 50,> 100,,
CCn1c(=O)n(C)c(=O)c2c(Nc3ccccc3C(=O)OC)cc(=O)n(C)c21,> 50,> 50,> 100,,
O=c1[nH]cc(F)c(=O)[nH]1 [FLUOROURACIL],7.42,5.98,,6.52,4.95
Cn1c(=O)c2c(NCC(=O)Nc3ccc(C(F)(F)F)cc3)cc(N3CCOCC3)nc2n(C)c1=O,46.6,> 50,> 100,,
Cc1ccccc1NC(=O)CNc1cc(=O)n(C)c2c1c(=O)n(C)c(=O)n2C,17.2,13,> 100,,
CN(C)c1cc(NCC(=O)Nc2ccc(OC(F)(F)F)cc2)c2c(=O)n(C)c(=O)n(C)c2n1,,39.2,> 25,> 50,
CCn1c(=O)n(C)c(=O)c2c(Nc3ccc(F)c(Cl)c3)cc(=O)n(C)c21,> 50,> 50,> 100,,
CN(C)c1cc(NCC(=O)Nc2ccc(C(F)(F)F)cc2)c2c(=O)n(C)c(=O)n(C)c2n1,,43.2,> 50,> 50,
Cn1c(=O)c2c(Nc3ccccn3)cc(=O)n(C)c2n(C)c1=O,10.2,25,> 100,,
CN(C)c1cc(NCC(=O)Nc2ccc(Cl)cc2)c2c(=O)n(C)c(=O)n(C)c2n1,49.2,> 50,> 100,,
Cn1c(=O)c2c(Nc3ccc(F)c(Cl)c3)cc(=O)n(C)c2n(C)c1=O,> 50,49.6,> 100,,
CC(C)Nc1c(Cc2ccccc2)c(=O)n(C)c2c1c(=O)n(C)c(=O)n2C,9.98,24.5,> 100,,
